Here are results for one compound from BindingDB's records for doi:10.1016/j.bmcl.2006.08.060 (Lucknow University, 2006).

One may read the IC50 as the concentration that gives 50% inhibition.

The test concerns Enterococcus faecalis. In words: Antibacterial activity against Streptococcus faecalis by broth microdilution technique. (In general: Dilution methods test growth across graded concentrations, often in twofold steps.)

As to `CNC(C)[C@@H]1CC[C@@H](N)[C@@H](O[C@H]2[C@H](O)[C@@H](O[C@H]3OC[C@](C)(O)[C@H](NC)[C@H]3O)[C@H](N)C[C@@H]2N)O1` (stereo partly specified) [Gentamicin], the IC50 came to 445 nM.
